Laboratory results as given in patent publication US20120172313A1, “TREATMENT OF PROLIFERATIVE DISEASES” (priority 2010, published 2012).
Bridges are numbered along the chain shown (N, C = ends). Where no end group is shown, it is not given here.

Experiments:
[1] = tested on: Fusarium oxysporum f. sp. vasinfectum; conditions: read-out: IC50, growth of Fusarium oxysporum f. sp. vasinfectum
Experimental: Permeabilization of fungal membranes has also been reported for some plant defensins (Lay and Anderson, 2005). […] These five fungal species are all members of the ascomycete phylum and are distributed among three classes in the subphylum pezizomycotiria. These fungi are agronomically important fungal pathogens.
SP Sepharose elution fractions containing rNaD1 were loaded onto an analytical C8 RP-HPLC column and eluted using a 40 min linear gradient (0-100% buffer B). Proteins were detected by absorbance at 215 nm. […] Graph represents data from three separate experiments performed in quadruplicate. Error bars represent standard error of the mean.

human red blood cells = assay: Red blood cell (RBC) lysis; conditions: for haemolytic activity: concentrations up to 100 μM
Experimental: Following ficoll-paque separation, RBCs were collected and washed with 1×PBS and pelleted at 1000×g for 10 min. RBCs were diluted 1 in 10 for treatment with increasing concentrations (0-100 μM) of defensins and incubated over-night under a humidified atmosphere of 5% CO2/95% air. […] The degree of red blood cell lysis was measured as absorbance at 412 nm.

[2] = tested on: human coronary artery smooth muscle cells (CASMC) and umbilical vein endothelial cells (HUVEC); conditions: read-out: IC50, viability of normal primary cells (MTT), 48 h
Experimental: Tumour cells were seeded in a 96-well microtitre plate (50 μL/well) at an optimum density determined in the cell optimisation assay as above. Background control wells (n=8) containing the same volume of complete culture medium were included in the assay. The microtitre plate was incubated overnight at 37° C., prior to the addition of proteins at various concentrations and the plate was incubated for a further 48 h. The cell viability 3-(4,5-dimethyl-2-thiazolyl)-2,5-diphenyl-2H-tetrazolium bromide (MTT, Sigma-Aldrich) assay was carried out as follows: the MTT solution (1 mg/mL) was added to each well (100 μL) and the plate incubated for 2-3 h at 37° C. under a humidified atmosphere containing 5% CO2/95% air. Subsequently, for adherent cell lines, the media was removed and replaced with dimethyl sulfoxide (100 μL, DMSO, Sigma-Aldrich), and placed on a shaker for 5 min to dissolve the tetrazolium salts. In the case of suspension cells, prior to the addition of DMSO the cells are spun at 1500 rpm for 5 min. Absorbance of each well was measured at 570 nm and the IC50 values (the protein concentration to inhibit 50% of cell growth) were determined using the Origin Software Program. […]

[3] = tested on: human U937 myelomonocytic cells; assay: PI uptake flow cytometry cell permeabilisation assay, U937; format: cell-based; conditions: for PI+ U937 cells (mean ± SEM): 10 μM, absence of serum, Example 9, cell only control 27.03±0.52
Experimental: (§1) Unless otherwise stated, cells were re-suspended at a cell concentration of 4×10^5 cells/mL in complete culture RPMI-1640 medium supplemented with 10% FBS, 100 U/mL penicillin and 100 μg/mL streptomycin, and added to either a V-bottom 96-well plate or microfuge tubes. Cells were kept at 37° C., unless otherwise stated, during protein addition (5 μL) at various concentrations or the set concentration of 10 μM. Typically, cells were mixed with the protein of interest and incubated at 37° C. for 30 min. In certain experiments, cells were also incubated at either 4° C. or 37° C. for 2-60 min prior to flow cytometry analysis. Cells were added to an equal volume of complete culture medium containing 2 μg/mL propidium iodide (PI, Annexin V-FITC Apoptosis Detection Kit, Invitrogen) and analysed immediately by flow cytometry using a FACSCanto cell sorter (Becton Dickson, Fanklin Lakes, N.J.) and Cell Quest Pro Software (Becton Dickson). Typically, 5000-10000 events per sample were collected and the resultant data were analysed using FlowJo software (Tree Star, Ashland, Oreg.). Cells were gated appropriately based on forward scatter (FSC) and side scatter (SSC), with the viable cells determined by their ability to exclude PI. For analysis purposes, all data was standardised relative to control (normal cell % ranged from approx. 0-7%).
(§2) To determine whether NaD1 kills tumour cells in a similar manner to fungus, the ability of NaD1 to permeabilise tumour cells was assessed using two different approaches. The first used a bioluminescence assay to measure the release of intracellular ATP.
(§3) The first used a bioluminescence assay to measure the release of intracellular ATP. 4×10^4 U937 (human myelomonocytic tumour cell line) were treated with increasing concentrations of PhD1A or rTPP3 (0-20-μM) and ATP release measured at intervals of 30 seconds for a total of 30 min by determining absorbance at 562 nm. The second approach used flow cytometry to determine the uptake of the fluorescent dye propidium iodide (PI) (2 μg/mL) by U937 (4×10^5/mL) following the treatment of cells with increasing concentrations of PhD1A (0 to 50 μM) or rTPP3 (0 to 40 μM) for 30 min.
(§4) The percentage of PI^+ cells was then determined by flow cytometry.
(§5) The first used a bioluminescence assay to measure the release of intracellular ATP. 4×10^4U937 were treated with 10 μM of each defensin and ATP release measured at intervals of 30 seconds for a total of 30 min by determining absorbance at 562 nm. The second approach used flow cytometry to determine the uptake of the fluorescent dye propidium iodide (PI) (2 μg/mL) by U937 (4×10^5/mL) following the treatment of cells with […] of each defensin for 30 min.

[4] = tested on: U937 human myelomonocytic cells; assay: ATP bioluminescence (ATP release) assay, U937; format: cell-based; conditions: read over 30 min
Experimental: ATP bioluminescence assay (Roche Diagnostics, NSW Australia) was used to quantitate the release of ATP by permeabilised tumour cells. The Luciferase reagent was dissolved as per manufacturer's instructions and incubated for 5 min at 4° C. Briefly, cells were re-suspended at a concentration of 1×10^6 cells/mL in 1×PBS/0.1% BSA and added (40 μL/well) to the Luciferase reagent (50 μL/well) to a blank microtitre plate (Nunc™) containing 10 μL of protein samples. Simultaneously, using a multichannel pipette, the mixture was added (90 μL/well) and samples were immediately read on a microtitre plate reader at 562 nm for 30 min with readings taken at 30 s intervals. The data were analysed by SoftMaxPro 4.0 software (Molecular Devices Company).
as §2, §3, §5

[5] = Lipid-coated membrane strip binding assay (Echelon lipid strips); conditions: 0.12 μM, overnight, 4° C.
Experimental: Membrane Lipid Strips™, PIP Strips™ and Sphingo Strips™ (Echelon Biosciences, Salt Lake City, Utah) were incubated with PBS/3% BSA for 1-2 h at RT to block non-specific binding. The membrane strips were then incubated with defensins (0.12 μM) diluted in PBS/1% BSA overnight at 4° C., prior to thorough washing for 60 min at RT with PBS/0.1% Tween-20. […] After each antibody incubation, the membrane strips were washed extensively for 60 min at RT with PBS/0.1% Tween-20. Chemiluminescence was detected using the enhanced chemiluminescence (ECL) western blotting reagent (GE Healthcare BioSciences, NSW Australia) and exposed to Hyperfilm (GE Healthcare BioSciences, NSW, Australia) and developed using an Xomat (All-Pro-Imaging).
Densitometry analysis was performed on images obtained from lipid strips using ImageJ (National Institute of Health, Bethesda, Md.). Briefly, circles of equivalent size were traced around areas of interest. A background circle of equal size was also placed in the area on the membrane where there is no lipid and set as the background. The areas of interest were quantified as the average pixel intensity subtracted from the background.
These strips are spotted with 100 pmole of each lipid in a biologically active form.
Further investigation of the interaction of Solanaceae class I and class II defensins with cellular lipids was carried out by solid-state lipid binding assays using Echelon™ PIP Strips. […] Defensin binding was quantitated by densitometry on the developed lipid strips.

U937 cells = assay: PI uptake permeabilisation assay in the presence of serum; format: cell-based, human; conditions: for PI+ U937 cells: 10 μM defensin; for activity on tumour cells in the presence of serum: up to 40% serum
Experimental: as §1, §4
To assess the ability of PhD1A or rTPP3 to permeabilise tumour cells in the presence of serum, the PI-uptake flow cytometry assay was utilised as described in Example 2 with the following modifications: 4×10^5/mL U937 cells were incubated with […] PhD1A or rTPP3 in the presence of increasing concentrations of foetal calf serum (FCS) (0 to 40%) for 60 min followed by addition of 2 μg/mL PI. The percentage of PI^+ cells was then determined by flow cytometry.

[6] = Acute oral toxicity (OECD Test Guideline 423); format: in vivo, C57BL/6 mice
Excerpt: This study was based on OECD Test Guideline 423 (OECD [Organisation for Economic Co-operation and Development]. 2001. Guideline 423: Acute Oral Toxicity—Acute Toxic Class Method. Paris: OECD).
Healthy female C57BL/6 mice derived from the same litter were obtained from either the Central Animal House at La Trobe University (Bundoora Campus) or from Monash Animal Services. The animals were identified by ear punch and kept three per cage during the study. The animals will be housed and maintained in groups of three in cages as per standard animal house conditions at La Trobe University.
On the day of dosing, the test mice were weighed and fasted for 4 h prior to dose administration. Just prior to dosing, the mice were reweighed. […] The protein solution was administered by oral gavage using a round-tipped canula needle. Feed was replaced 1 h after dosing. The mice received standard rodent diet and water ad libitum.
The mice were observed hourly for 4 h after dosing on day 1 and at least twice daily thereafter until scheduled killing on day 14. Signs of gross toxicity, adverse pharmacologic effects and behavioural changes were assessed and recorded daily as was the food and water consumption. The mice were reweighed at days 7 or 8 and 14. On the last day of the study (day 14), the mice were killed by inhalation of carbon dioxide and necropsied. All the mice received a gross pathological examination. The weights of the following organs were recorded: brain, heart, liver, lungs, kidneys, gastrointestinal tract, spleen and thymus. Subsequently, the samples were fixed in 4% (v/v) paraformaldehyde until paraffin embedding, sectioning and histopathological examination by the Australian Phenomics Network, University of Melbourne node. The gastrointestinal tract was divided into the following sections: stomach, duodenum, jejunum, ileum, cecum and colon.

[7] = Example 11, 30 min at 37° C., concentration printed 'at 100' (10 μM in the same block)
[8] = oral gavage, 20, 50 or 300 mg NaD1/kg body weight, 14 days

Which IC50 [1] does the source give for “ARECKTESNTFPGICITKPPCRKACISEKFTDGHCSKILRRCLCTKPC (disulfide 4-48, 15-35, 21-42, 25-44) [rNaD1]” here?
Its IC50 is roughly 1.6 µM.

What about the haemolytic activity (human red blood cells) of the same substance?
Its haemolytic activity is “no ability to lyse RBCs”.

What about the haemolytic activity (human red blood cells; listed as recombinant NaD1) of the same substance?
The haemolytic activity was “no haemolytic activity”.

What about the IC50 [2] of the same substance?
Its IC50 is 7.5 to 12 µM.

Which “PI+ U937 cells” value [3, 7] does the source give for “NsD1: Nicotiana suaveolens class II defensin; mature domain SEQ ID NO: 22 (KDCKRESNTFPGICITKPPCRKACIREKFTDGHCSKILRRCLCTKPC; listed as Nicotiana suaveolens)” here?
Its value is roughly 60%.

What about the “release of ATP from U937 cells” value [4] of the same substance?
The value was “release of ATP in a time-dependent and concentration-dependent manner”.

What about the “phospholipid binding preference (PIP strips)” value [5] of the same substance?
The value was “general preference of binding to phosphoinositides”.

Which “PI+ U937 cells” value [3, 7] does the source give for “NsD2: Nicotiana suaveolens class II defensin; mature domain SEQ ID NO: 26 (KDCKRESNTFPGICITKLPCRRACISEKFADGHCSKILRRCLCTKPC; listed as Nicotiana suaveolens)” here?
The value was roughly 60%.

And the “release of ATP from U937 cells” value [4]?
Its value is “release of ATP in a time-dependent and concentration-dependent manner”.

What about the “phospholipid binding preference (PIP strips)” value [5] of the same substance?
The value was “general preference of binding to phosphoinositides”.

For “PhD1A: Petunia hybrida Class II defensin; mature domain SEQ ID NO: 18 (ATCKAECPTWDGICINKGPCVKCCKAQPEKFTDGHCSKVLRRCLCTKPC; listed as Petunia hybrida)”, which “PI+ U937 cells” value ([3]; 6.25 μM, 30 min, 37° C.) is on record?
The value was roughly 35%.

What about the “PI+ U937 cells (mean ± SEM)” value [3] of the same substance?
Its value is 57.07±2.76%.

What about the “PI+ U937 cells” value ([3]; 50 μM, 30 min, 37° C.) of the same substance?
Its value is roughly 90%.

What about the “release of ATP from U937 cells” value [4] of the same substance?
The value was “release of ATP in a time-dependent and concentration-dependent manner”.

And the “PI+ U937 cells” value (U937 cells; 0% FCS)?
The value was 90%.

What about the “PI+ U937 cells” value (U937 cells; 40% FCS) of the same substance?
Its value is 40%.

And the “activity on tumour cells in the presence of serum” value (U937 cells)?
Its value is “retained the ability to permeabilise U937 cells”.

And the “binding to phosphatidic acid (PA)” value [5]?
Its value is “bound strongly”.

What about the “phospholipid binding preference (PIP strips)” value [5] of the same substance?
Its value is “general preference of binding to phosphoinositides”.

With “RECKTESNTFPGICITKPPCRKACISEKFTDGHCSKILRRCLCTKPC (disulfide 3-47, 14-34, 20-41, 24-43) [NaD1]” as the substance, how does the IC50 [1] read?
Its IC50 is roughly 1 µM.

What about the “RBC lysis (relative to water = 100% lysis)” value (human red blood cells; 100 μM, 16 h, 37° C.) of the same substance?
The value was roughly 50%.

What about the “adverse effects on mice” value ([6]; administered orally at up to 300 mg NaD1/kg body weight) of the same substance?
Its value is “no adverse effects”.

What about the histopathology of organs ([6]; highest dose of 300 mg NaD1/kg body weight) of the same substance?
Its histopathology of organs is “possible slight irritation to the stomach epithelium”.

And the body weight [6, 8]?
Its body weight is “no treatment related effects on body weight”.

And the clinical signs [6, 8]?
Its clinical signs is “no signs of gross toxicity, adverse pharmacologic effects or behavioural changes”.

And the survival [6, 8]?
The survival was “survived to termination of the study”.

And the histopathology of organs ([6]; oral gavage, doses below 300 mg NaD1/kg body weight)?
Its histopathology of organs is “No pathologies, attributable to protein administration”.

And the IC50 [2]?
Its IC50 is 7.5 to 12 µM.

Which results are given for “rTPP3: Solanum lycopersicum (tomato) Class II defensin TPP3, recombinant (SEQ ID NO: 12) (AQQICKAPSQTFPGLCFMDSSCRKYCIKEKFTGGHCSKLQRKCLCTKPC; listed as Solanum lycopersicum)”?
PI+ U937 cells ([3]; 5 μM, 30 min, 37° C.): ~35%; PI+ U937 cells (mean ± SEM) [3]: 49.97±2.93%; PI+ U937 cells ([3]; 40 μM, 30 min, 37° C.): ~90%; release of ATP from U937 cells [4]: release of ATP in a time-dependent and concentration-dependent manner; retention of permeabilisation activity (U937 cells; 5-40% FCS): up to 70%; activity on tumour cells in the presence of serum (U937 cells): retained the ability to permeabilise U937 cells; phospholipid binding preference (PIP strips) [5]: general preference of binding to phosphoinositides
